Marks after values point to notes of the source that are not given here.

The subject of experiment [1] is diet-induced obese (DIO) mice. As to the kind of experiment: Sub-chronic in vivo study in obese mice: food intake and body weight. Particulars: for effect on body weight (in words) / effect on food intake (in words) / Cumulative food intake (kcals) Day 14: DIO mice; for effect on body weight (in words) / effect on food intake (in words): Tables 6-8, compound 47 2 nmol/kg, GIP derivatives 30 nmol/kg; for Cumulative food intake (kcals) Day 14 / Absolute BW (grams) Day 14 / Change in BW (%) Day 14: once daily s.c.; for Cumulative food intake (kcals) Day 14 / Absolute BW (grams) Day 0 / Absolute BW (grams) Day 14 / Change in BW (%) Day 14: mean ± SEM; for Absolute BW (grams) Day 0: Day 0 (before treatment). The arrangement: species or system C57BL/6J mice. The source says: (§1) The purpose of this example is to assess the in vivo effect of the GIP derivatives of the present invention alone and in combination with a GLP-1 receptor agonist on food intake, body weight, and glucose tolerance in diet-induced obese (DIO) mice. The GLP-1 receptor agonist used for this example was a semaglutide-like molecule that has the same pharmacological properties as semaglutide, but a slightly different structure. The compound may be synthesised using methods known in the art, e.g. as described by methods of present Example 1 or as described in WO 2006/097537, example 4.
(§2) The animals were treated once daily with the GLP-1 receptor agonist (compound no. 47) and/or a GIP derivative of the present invention exemplified by compound no.'s 5, 25 and 31, to assess weight loss, efficacy and glucose tolerance. Animals and Diet
(§3) All animal protocols were approved by an Institutional Animal Care and Use Committee and Ethical Review Committee of Novo Nordisk. Animals were housed according to Novo Nordisk rodent housing standards, and were given ad libitum access to food and water under controlled lighting (12 h:12 h light/dark cycle; lights off 18:00-06:00), temperature (23±2° C.) and relative humidity (50±20%) conditions. DIO male C57BL/6J mice maintained on a high fat diet (45% kcal fat, RD12451, Research Diets, New Brunswick, N.J., USA) for 22 weeks were obtained from Charles River (France). Upon arrival, the mice were single-housed (one mouse per cage) and allowed to acclimate to their new environment for two weeks prior to the start of treatment.
(§4) Prior to initiation of the study, animals were single-housed and acclimated to handling for 7 days. The DIO mice were distributed into groups (n=8/group) such that statistical variations in the mean and standard deviations of fat mass and body weight were minimized between groups. Animals were dosed once daily, subcutaneously with either vehicle or test compound.
(§5) All compounds in the study were formulated in the following buffer: 50 mM phosphate; 70 mM sodium chloride; 0.05% polysorbate 80, pH 7.4. Dosing solutions were formulated in glass vials and stored at 2-8° C. Dosing solutions were brought to room temperature before dosing and returned to 2-8° C. after dosing.
Body weight (BW) and food intake were measured immediately prior to dosing each day. The average starting body weight of the mice prior to start of treatment was 45.2±0.2 grams.

Experiment [2] deals with diet-induced obese (DIO) mice. As to the kind of experiment: Sub-chronic in vivo study in obese mice: IPGTT (intraperitoneal glucose tolerance test). The arrangement: species or system C57BL/6J mice. Conditions: for effect on glucose tolerance (in words): DIO mice, Tables 6-8, compound 47 2 nmol/kg, GIP derivatives 30 nmol/kg; for iAUC, IPGTT (mM*min) Day 15: i.p. glucose 2 g/kg, 4 h fasted, baseline subtracted AUC, mean ± SEM.
From the text: as §1, §2, §3, §4, §5
On the day of the glucose tolerance test (day 15), animals were fasted for 4 h. Food was removed and animals were transferred to fresh cages. Animals had access to water but not to food. Tail blood glucose levels were measured and mice were injected (t=0) with an intra-peritoneal (i.p.) glucose load of 2 g/kg (200 mg/ml glucose solution, dose volume 10 ml/kg). Tail blood glucose levels were measured at times 0, 15, 30, 60, 90, 120 minutes following the i.p. glucose load. Stratification of the animals during the IPGTT was such that for example two mice from group 1 are dosed followed by two mice from group 2, 3, 4, before the next two mice from group 1, 2, 3 etc. were handled. This was to allow for equal distribution of “time of day” throughout all groups.

Where [3] appears, read: Study 1, 47 2 nmol/kg and/or 5 30 nmol/kg.
[4] abbreviates: Study 2, compound no. 47 2 nmol/kg and/or compound no. 25 30 nmol/kg.
Setting [5] is: Study 2, 47 2 nmol/kg and/or 25 30 nmol/kg.
The mark [6] stands for this setting: Study 3, 47 2 nmol/kg, 31 30 nmol/kg.

For “N^6,26-{18-[N-(17-carboxyheptadecanoyl)-D-γ-glutamyl]-10-oxo-3,6,12,15-tetraoxa-9,18-diazaoctadecanoyl}-[8-(2-amino-2-propanoic acid), 34-L-arginine]human glucagon-like peptide 1(7-37) [Compound 47]”, the “effect on body weight (in words)” value in experiment [1] is reported as “body weight loss”. In addition, the “effect on food intake (in words)” value in experiment [1] is “reduction in food intake”. The “Cumulative food intake (kcals) Day 14” value in experiment [1] (Study 1, compound no. 47 2 nmol/kg and/or compound no. 5 30 nmol/kg) is reported as 146.3 ± 6.8 ^b kcals; in experiment [1] (setting [4]) it was 134.9 ± 4.3 ^b kcals; in experiment [1] (Study 3, compound no. 47 2 nmol/kg and GIP compound no. 31 30 nmol/kg), 140.2 ± 6.7 ^b kcals. In addition, the “Absolute BW (grams) Day 0” value was 44.4 ± 1.0 ^a grams in experiment [1] (Study 1), 40.2 ± 1.2 ^a grams in experiment [1] (Study 2) and 45.2 ± 1.4 ^a grams in experiment [1] (Study 3). Also, the “Absolute BW (grams) Day 14” value was 38.5 ± 1.2 ^bc grams in experiment [1] (setting [3]), 34.8 ± 1.2 ^b grams in experiment [1] (setting [5]) and 40.0 ± 1.3 ^a grams in experiment [1] (setting [6]). Moreover, the “Change in BW (%) Day 14” value in experiment [1] (setting [3]) is reported as −13.2 ± 3.3 ^c %; in experiment [1] (setting [5]), −13.6 ± 0.7 ^c %; in experiment [1] (setting [6]), −11.2 ± 1.6 ^c %. Moreover, the “effect on glucose tolerance (in words)” value in experiment [2] was “improvement in glucose tolerance”. Moreover, the “iAUC, IPGTT (mM*min) Day 15” value in experiment [2] (setting [3]) is on record as 543 ± 94 ^a mM*min; in experiment [2] (setting [5]), 503 ± 55 ^b mM*min; in experiment [2] (setting [6]), 1441 ± 135 ^c mM*min.
Regarding “N{1}-acetyl,N{Epsilon-24}-[(4S)-4-carboxy-4-[[(4S)-4-carboxy-4-[[(4S)-4-carboxy-4-[[4-[(19-carboxynonadecanoylamino)methyl]cyclohexanecarbonyl]amino]butanoyl]-amino]butanoyl]amino]butanoyl]-[D-Tyr1,Nle14,Arg18,Aib20,Lys24]-hGIP(1-31) [Compound 25]”, in experiment [1], the “effect on body weight (in words)” value was “minor body weight loss” and the “effect on food intake (in words)” value was “minor effect on food intake”. Further, in experiment [1] (setting [4]), the “Cumulative food intake (kcals) Day 14” value is listed as 170.2 ± 7.3 ^b kcals. For the same substance, the “Absolute BW (grams) Day 0” value in experiment [1] (Study 2) is on record as 41.1 ± 1.0 ^a grams. For the same substance, in experiment [1] (setting [5]), the “Absolute BW (grams) Day 14” value was 38.8 ± 1.0 ^a grams and the “Change in BW (%) Day 14” value was −5.6 ± 0.8 ^b %. Besides, in experiment [2], the “effect on glucose tolerance (in words)” value is listed as “improved glucose tolerance”. For the same substance, in experiment [2] (setting [5]), the “iAUC, IPGTT (mM*min) Day 15” value is given as 518 ± 36 ^b mM*min.

For the origin of these results see patent US10604555B2, “GIP derivatives and uses thereof” (priority 2018, dated 2020).
